Paper PMC11288129, “Diversely evolved xibalbin variants from remipede venom inhibit potassium channels and activate PKA-II and Erk1/2 signaling” (BMC Biology, 2024)
“Also recorded” adds a separate entry of the source. Positions of bridges follow the written chain, without caps; N, C: chain ends. No end group written: not given here.

Key:
[1] = test system: hERG1 (Kv11.1); assay: TEVC inhibition, Kv11.1 (hERG1); type: cell-based; conditions: human, Xenopus laevis oocytes expressing hERG1 (Kv11.1), pH 7.4, replicate 1
Source text: (§1) For the expression of Kv channels rat Kv1.1 (GenBank accession number: NM_173095 [88, 89]), rKv1.2 (NM_012970 [90, 91]), human Kv1.3 (NM_002232 [92, 93]), rKv1.4 (NM_012971 [94, 95]), rKv1.6 (NM_023954 [96, 97]), hKv2.1 (NM_004975 [98, 99]), hKv3.1 (NM_004976 [100, 101]), rKv4.2 (NM_031739 [102, 103]), hKv10.1 (NM_172362 [104, 105]), hERG1 [Kv11.1, (NM_000238 [106, 107])], and Shaker IR [from Drosophila melanogaster, (NM_167595 [108, 109])], Nav channels [rNav1.2 (NM_012647 [42, 110]), rNav1.4 (NM_013178 [111, 112]), hNav1.5 (NM_198056 [113, 114]), mNav1.6 (NM_001077499 [115, 116]), BgNav [from Blattella germanica, (DQ466887 [117, 118])] and the auxiliary subunits rβ1 (NM_001271045 [119, 120]), hβ1 (NM_001037 [121, 122]), and TipE [from D. melanogaster, (NM_079196 [109, 123])], and Cav channels hCav3.1 [124, 125], hCav3.2 [126, 127], and hCav3.3 [128, 129] in Xenopus oocytes, the linearized plasmids were transcribed using the T7 or SP6 mMESSAGEmMACHINE transcription kit (Ambion, Austin, TX, USA). […]
(§2) Whole-cell currents of oocytes were recorded 1 to 3 days after injection. […] The current–voltage (IV) relationships were determined by 100-ms step depolarizations between − 90 and + 40 mV, using 5 mV increments. […]

[2] = test system: voltage-gated potassium channels (Kvs); assay: TEVC on panel of voltage-gated potassium channels; type: cell-based; conditions: 1 µM
Source text: as §1, §2

[3] = test system: mNav1.6; assay: TEVC inhibition, Nav1.6; type: cell-based, mouse; conditions: 1 µM, Xenopus oocytes, ND96, 18–22 °C, mean ± SEM, n ≥ 3
Source text: as §1, §2

| Sequence | inhibition at 1 µM [1] [%] | inhibition of voltage-gated potassium channels [2] | inhibition of Nav1.6 [3] [%] |
| --- | --- | --- | --- |
| KRSCIRRFGRCDHRPNDCCYNSSCRCNLWGSNCRCQRMGLFQKWGK (disulfide 4-19, 11-24, 18-35, 26-33) [xib13] | 0 | potent inhibition; also recorded: most significant inhibition rates | 10.7 ± 0.9 |
| RLFCIRHHKYCGHRPKRCCSGLFCRCNTFGTNCRCQSKGALGKLI (disulfide 4-19, 11-24, 18-35, 26-33) [xib1] | 0 | potent inhibition | 5.7 ± 1.2 |
